In ChEMBL document CHEMBL1944601, “N-(4-Substituted-benzoyl)-N'-(β-d-glucopyranosyl)ureas as inhibitors of glycogen phosphorylase: Synthesis and evaluation by kinetic, crystallographic, and molecular modelling methods” (Bioorg Med Chem, 2012):

What was measured:
[1] = molecular target: T1, Glycogen phosphorylase, muscle form (Oryctolagus cuniculus, UniProt P00489)
T1 sequence (P00489 whole entry): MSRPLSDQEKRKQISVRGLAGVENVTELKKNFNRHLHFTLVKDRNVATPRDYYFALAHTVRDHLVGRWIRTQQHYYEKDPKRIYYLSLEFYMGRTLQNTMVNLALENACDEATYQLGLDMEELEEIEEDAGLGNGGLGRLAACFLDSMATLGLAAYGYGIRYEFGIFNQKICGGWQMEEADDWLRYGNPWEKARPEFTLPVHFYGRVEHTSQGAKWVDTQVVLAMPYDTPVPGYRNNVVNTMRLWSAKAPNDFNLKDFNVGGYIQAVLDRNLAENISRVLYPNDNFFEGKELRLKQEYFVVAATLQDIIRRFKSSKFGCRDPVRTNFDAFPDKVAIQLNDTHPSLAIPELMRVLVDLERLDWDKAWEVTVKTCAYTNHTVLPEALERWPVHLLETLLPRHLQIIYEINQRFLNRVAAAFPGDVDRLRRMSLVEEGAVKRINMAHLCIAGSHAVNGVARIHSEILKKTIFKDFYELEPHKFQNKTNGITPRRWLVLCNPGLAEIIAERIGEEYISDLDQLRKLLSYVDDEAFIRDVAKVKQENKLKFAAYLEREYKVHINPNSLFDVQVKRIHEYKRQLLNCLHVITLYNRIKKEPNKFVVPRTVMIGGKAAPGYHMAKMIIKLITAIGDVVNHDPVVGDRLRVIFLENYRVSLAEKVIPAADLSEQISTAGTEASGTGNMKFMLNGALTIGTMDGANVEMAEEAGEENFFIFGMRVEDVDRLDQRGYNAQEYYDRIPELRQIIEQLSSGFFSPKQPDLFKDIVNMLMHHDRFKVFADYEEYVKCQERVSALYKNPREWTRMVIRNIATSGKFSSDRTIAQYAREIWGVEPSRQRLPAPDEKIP
Description: (§1) Inhibition of rabbit muscle glycogen phosphorylase b assessed as inorganic phosphate release at pH 6.8

[2] = molecular target: T1, Glycogen phosphorylase, muscle form; remark: listed apart in the source
Description: as §1

COc1ccc(C(=O)NC(=O)N[C@@H]2O[C@H](CO)[C@@H](O)[C@H](O)[C@H]2O)cc1
Ki [1]: 3.2 µM

O=C(O)CCC(=O)N[C@@H]1O[C@H](CO)[C@@H](O)[C@H](O)[C@H]1O
Ki [1]: 20 µM

[N-]=[N+]=NCC(=O)N[C@@H]1O[C@H](CO)[C@@H](O)[C@H](O)[C@H]1O
Ki [1]: 49 µM

COC(=O)N[C@@H]1O[C@H](CO)[C@@H](O)[C@H](O)[C@H]1O
Ki [1]: 210 µM

O=C(N[C@@H]1O[C@H](CO)[C@@H](O)[C@H](O)[C@H]1O)C(F)(F)F
Ki [1]: 75 µM

O=C(NC(=O)c1ccc(Cl)cc1)N[C@@H]1O[C@H](CO)[C@@H](O)[C@H](O)[C@H]1O
Ki [1]: 4.4 µM

O=C(NC(=O)c1ccc(-c2ccccc2)cc1)N[C@@H]1O[C@H](CO)[C@@H](O)[C@H](O)[C@H]1O
Ki [1]: 3.7 µM

O=C(NC(=O)c1ccc(C(=O)O)cc1)N[C@@H]1O[C@H](CO)[C@@H](O)[C@H](O)[C@H]1O
Ki [1]: 85 µM

COC(=O)c1ccc(C(=O)NC(=O)N[C@@H]2O[C@H](CO)[C@@H](O)[C@H](O)[C@H]2O)cc1
Ki [1]: 4 µM

O=C(N[C@H]1O[C@H](CO)[C@@H](O)[C@H](O)[C@H]1O)C(F)(F)F
Ki [2]: Not Active

CC(=O)NC(=O)N[C@@H]1O[C@H](CO)[C@@H](O)[C@H](O)[C@H]1O
Ki [1]: 370 µM

O=C(NC(=O)c1ccc(C(=O)OCc2ccccc2)cc1)N[C@@H]1O[C@H](CO)[C@@H](O)[C@H](O)[C@H]1O
Ki [1]: 150 µM

NC(=O)NC1O[C@H](CO)[C@@H](O)[C@H](O)[C@H]1O (single isomer, unassigned)
Ki [1]: 140 µM
